Reference: US7053100B2, “Therapeutic nucleosides” (priority 1991, dated 2006)
Where “and” joins values, the source holds several entries; their conditions need not be identical. Identical values can stand only once.

Tested on: Hepatitis B Virus (HBV) in human HBV producer cell line of HepG2, 2.2.15
Conditions: 100 μM compound, 2.2.15 cells
Procedure: Antiviral Activity Against Hepatitis B Virus (HBV)
The human HBV producer cell line of HepG2, 2.2.15, described and characterized by Sells et al., PNAS 84:1005, 1987 and J. Virol. […] This cell line was utilized in vitro to identify compounds with anti-HBV activity.
Supernatant media containing extracellular virion DNA (Dane particles) were harvested on days three, six and ten, treated with proteinase K (1 mg/mL) and sodium dodecyl sulfate (1%), and incubated at 50° C. for one hour. DNA was extracted with equal volumes of phenol followed by chloroform and then precipitated by ammonium acetate and propanol. The DNA precipitate was dissolved and collected on nitrocellulose using the procedure of Schleicher and Schuell (S & S, 10 Optical Ave., Keene, N.H. 03431, Publication No. 700, 1987), and treated as described by Southern, J. Mol. Biol. 98:503, 1975. Cells were harvested, and the intracellular DNA was obtained after cell lysis with guanidine isothiocyanate. The intracellular DNA was handled in the same manner as the extracellular DNA. After precipitation by ammonium acetate and propanol, the intracellular DNA precipitate was dissolved, cut by restriction endonuclease, Hind III, applied to agarose gel and then treated as described by Southern to determine the quantity of replicative intermediate forms.

[1] = analysis 24 hours following the 10th day of treatment, duplicate cultures, experiments A and B

Compound: Nc1nc(=O)n([C@@H]2CS[C@H](CO)O2)cc1F (racemic) [cis-1-(2-(Hydroxymethyl)-1,3-oxathiolan-5-yl)-5-fluoro-cytosine]
- HBV DNA in Culture Medium, Day 0 (Day 0, zero = undetectable, sensitivity cutoff 0.1 pg/mL): 90 pg/mL
- HBV DNA in Culture Medium, Day 10 (Day 10, zero = undetectable, sensitivity cutoff 0.1 pg/mL): 0 pg/mL
- Intracellular HBV DNA, Monomer [1]: 0.8 pg/μg cell DNA and 0.7 pg/μg cell DNA
- Intracellular HBV DNA, Replicative intermediate [1]: 1 pg/μg cell DNA and 2 pg/μg cell DNA
